Source: patent US10858388B2, “Selective progesterone receptor modulator (SPRM) regimen” (BAYER PHARMA AKTIENGESELLSCHAFT, priority 2015, dated 2020)
“Also recorded” adds a separate entry of the source.

Key:
Format in all cases: in vivo, human
[1] = tested on: subjects with uterine fibroids; experiment: Study 15788: endometrial thickness by transvaginal ultrasound, 3-month treatment (Example 3); details: 12 weeks
Protocol: (§1) A randomized, parallel-group, double-blind, placebo-controlled, multi-center study to assess efficacy of different doses of Compound 1 where primary efficacy variable is Endometrium thickness and secondary efficacy variable is PAEC in subjects with uterine fibroids over a 3-month treatment [1×12 weeks/84 days]
Doses: 0.5 mg, 1 mg, 2 mg, or 4 mg once daily
(§2) Route of administration: Oral
Duration of treatment: 1×12 weeks (84 days)
Women, 18 to 50 years old, with uterine fibroids documented by transvaginal or abdominal ultrasound at screening with at least 1 uterine fibroid with largest diameter 3 cm and heavy menstrual bleeding (HMB) 80 ml were eligible for enrolment in the study.
Eligible subjects were equally randomized to one of the treatment groups (Placebo, 0.5 mg, 1 mg, 2 mg, or 4 mg Compound 1). Treatment started during the first week of the menstrual cycle following randomization. The treatment period consisted of 12 weeks (84 days) of daily tablet intake.
(§3) Efficacy Measurement: • endometrial biopsies • cervical smear • transvaginal ultrasound TVU (endometrial thickness, ovaries)
Subjects that were detected with endometrial thickness (double layer)>18 mm (or suspicious bleeding pattern, e.g. continuous spotting, unusually heavy bleeding), were immediately evaluated by an additional endometrial biopsy.

[2] = tested on: subjects with uterine fibroids; experiment: Study 17541: endometrium thickness, 3-month vs 6-month treatment without break (Example 6); details: 2 mg once daily, 13 subjects, blinded, preliminary data, 3 or 6 months without break
Protocol: A randomized, parallel-group, double-blind, placebo-controlled, multi-center study to assess efficacy of a dose of 2 mg of Compound 1 where primary efficacy variable is Endometrium thickness, in subjects with uterine fibroids over 3-month vs 6-month with or without treatment break.
as §2
Duration of treatment: 2×12 weeks (A1) or 1×12 weeks (A2) without treatment break
Women, 18 to 50 years old, with uterine fibroids documented by transvaginal or abdominal ultrasound at screening with at least 1 uterine fibroid with largest diameter 3 cm and Heavy Menstrual Bleeding (HMB) 80∃ ml were eligible for enrolment in the study.
Number of Women: 13 subjects having finished the treatment so far.
Eligible subjects were equally randomized to one of the treatment groups (Placebo, 2 mg of Compound 1). Treatment period was started during the first three days of the bleeding episode following randomization or ongoing at randomization. The treatment period will consist of 3 months (12 weeks) or 6 months [2×12 weeks (84 days)] of daily tablet intake without treatment break. • Treatment A1: 2 mg of Compound 1 (12 weeks), 2 mg of Compound 1 (12 weeks). • Treatment A2: Placebo (12 weeks), 2 mg of Compound 1 (12 weeks).
After the end of treatment period, subjects were followed up for 12 weeks. […]

[3] = tested on: subjects with uterine fibroids; experiment: Study 15788: endometrial biopsies, PAEC and histology (Example 3)
Protocol: as §1
The first endometrial biopsy was performed on Day 9+/−2 of the first or second menstrual cycle after screening visit 1, i.e. at screening visit 2.
Biopsy was determined by randomization. This means that subjects were randomized to the time point of the second biopsy and were informed about the group they are in, directly after randomization followed by stratification by dose group.
If a subject was randomized to this time point, the biopsy was scheduled on Day 9+/−2 of the first menstrual cycle after the treatment visit 2 (corresponding to Visit 5), i.e. during the last 4 weeks of study drug treatment. If no menstrual bleeding occurs between the treatment visit 2 (Visit 5) and the end of treatment (EoT) visit (Visit 6), the biopsy was performed at the end of treatment (EoT) visit (Visit 6).
(§4) If a subject was randomized to this time point, the biopsy was scheduled on Day 9+/−2 of the first menstrual cycle after the end of treatment. If no menstrual bleeding occurs until 12 weeks after end of treatment, i.e. until the follow-up visit 2 (Visit 8), a biopsy was performed at the follow-up visit 2 (Visit 8) and induction of bleeding was considered.
as §4, with “second” for “first”
as §4, with “subject is” for “subject was”, “Day 9+1-2” for “Day 9+/−2”, “the third” for “the first”, “after” for “after the”, “bleeding occurred” for “bleeding occurs”
The third endometrial biopsy was performed at the follow-up visit 3 (Visit 9), which was scheduled on Day 9+/−2 of the menstrual cycle which started following Week 20 after the end of treatment. If no bleeding episode occurred, Visit 9 was performed 24 weeks after end of treatment, i.e. Visit 9 took place 21 to 24 weeks after the end of treatment in all subjects. If the second endometrial biopsy was performed less than 6 weeks before the scheduled date of the third endometrial biopsy and pathological findings were absent, the third endometrial biopsy was not required.
After the end of treatment, subjects were followed up for 21 to 24 weeks (Follow-up period). […] In case of findings that require further follow-up, additional visits were scheduled according to normal standard practice.
as §3
FIG. 2: PAEC in biopsy after 1st/2nd/3rd bleeding episodes (menses). Pharmacodynamic effecs on the endometrium. Percentage of subjects with PAEC.

[4] = tested on: healthy subjects; experiment: Amenorrhea in healthy subjects
Source text: Compound 1 is a potent Selective Progesterone Receptor Modulator (SPRM) and more particularly a competitive Progesterone Receptor (PR) antagonist creating alternatives for the treatment of Uterine Fibroids. […] Amenorrhea corresponds to the major objective of the treatment i.e. control of excessive uterine bleeding.

SMILES: C[C@]12C[C@H](c3ccc(S(C)(=O)=O)cc3)C3=C4CCC(=O)C=C4CC[C@H]3[C@@H]1CC[C@@]2(O)C(F)(F)C(F)(F)F [Compound 1, (11β,17β)-17-Hydroxy-11-[4-(methylsulphonyl)phenyl]-17-(pentafluoroethyl)estra-4,9-dien-3-one]
- Endometrial thickness at EoT, max ([1]; 0.5 mg once daily oral): (27.0, 5.2) mm
- Subjects with maximum endometrium thickness >18 mm, (%) ([1]; 0.5 mg once daily oral): (3.4) %
- Median endometrial thickness at EoT ([1]; 0.5 mg once daily oral, n = 57): 9.0 mm
- Endometrial thickness at EoT, max ([1]; 1 mg once daily oral): (41.0, 7.0) mm
- Subjects with maximum endometrium thickness >18 mm, (%) ([1]; 1 mg once daily oral): (12.5) %
- Median endometrial thickness at EoT ([1]; 1 mg once daily oral, n = 56): 10.0 mm
- Endometrial thickness at EoT, max ([1]; 2 mg once daily oral): (27.0, 4.7) mm
- Subjects with maximum endometrium thickness >18 mm, (%) ([1]; 2 mg once daily oral): (3.5) %
- Median endometrial thickness at EoT ([1]; 2 mg once daily oral, n = 58): 7.5 mm
- Endometrial thickness at EoT, max ([1]; 4 mg once daily oral): (20.0, 4.9) mm
- Median endometrial thickness at EoT ([1]; 4 mg once daily oral, n = 56): 8.5 mm
- Trend in endometrial thickness under treatment ([1]; 0.5-4 mg once daily): no clear trend for an increase
- Endometrial size [2]: ≤ 18 mm
- Treatment-emergent critical endometrial findings [2]: no treatment-emergent critical endometrial findings occurred
- Treatment-emergent critical endometrial findings ([3]; 0.5-4 mg once daily, 12 weeks): No treatment-emergent critical endometrial findings occurred
- Resolution of PAECs after bleeding episodes ([3]; break / follow-up after end of treatment): already resolved after one bleeding; also recorded: resolve PAECs already after one bleeding
- Endometrial histology in biopsies at the end of follow-up ([3]; end of follow-up, all available samples): benign endometrial histology changes (PAEC)
- Cases of hyperplasia ([3]; endometrial biopsies): no cases of hyperplasia
- PAECs during follow-up ([3]; follow-up after 12 weeks treatment, FIG. 2): returned to background level
- Amenorrhea [4]: Amenorrhea was observed
